Results taken from patent US20100216827A1 (Metabolex, Inc., priority 2008, published 2010).
Like-named read-outs stand apart in the source and are kept apart here.

Target: T1, human GPR120 (Homo sapiens, UniProt Q5NUL3)
T1 construct: host or cells: HEK293 cells coexpressing Gqi5
T1 sequence (Q5NUL3 1-361): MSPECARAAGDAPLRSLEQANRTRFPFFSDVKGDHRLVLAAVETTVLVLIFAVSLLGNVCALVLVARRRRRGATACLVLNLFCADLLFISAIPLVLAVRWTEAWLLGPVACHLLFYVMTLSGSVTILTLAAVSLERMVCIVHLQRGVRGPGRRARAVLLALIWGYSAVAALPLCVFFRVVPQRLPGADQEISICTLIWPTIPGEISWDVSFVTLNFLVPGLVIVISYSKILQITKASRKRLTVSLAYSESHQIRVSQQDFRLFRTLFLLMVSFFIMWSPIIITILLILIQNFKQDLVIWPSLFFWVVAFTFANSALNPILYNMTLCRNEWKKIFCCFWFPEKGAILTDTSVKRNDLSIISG
Test: Intracellular Ca2+ (FLIPR Calcium 4, Flexstation) assay in human GPR120 stable HEK293 cell line coexpressing Gqi5
Assay type: cell-based
Conditions: for % Activity at 5 μM: 5 μM compound compared to the maximal activity of GW9508 at 6.7 μM (100%); for EC50: human GPR120 stably expressing cells, 8 concentrations 0.00001 to 20 μM
Protocol: Human GPR120 stable cell line was purchased from Multispan Inc (26219 Eden Landing Road, Hayward, Calif. 94545). This GPR120 cell line was generated in HEK293 cells coexpressing Gqi5. In this cell line, the Flag epitope tag (DYKDDDDK) was fused to the amino terminus of human GPR120 protein.
The concentration of intracellular Ca^2+ was measured as described below. Human GPR120 cells were plated in 96 well plates (Poly-D-Lysine coated black/clear Plate, Greiner Bio-One) at 70,000 cells per well and cultured overnight in conditions of 37° C. and 5% CO2. A Ca^2+ assay dye stock solution was prepared by adding 10 mL of assay buffer (HBSS/20 mM HEPES, pH 7.4) to FLIPR Calcium 4 Assay Bulk Kit (Molecular Devices). The 10 mL of Ca^2+ assay dye solution was prepared by further diluting 0.5 mL of Ca^2+ assay dye stock solution with 10 mL of assay buffer. The medium of the cells was removed and immediately 100 μl of the Ca^2+ assay dye solution was dispensed into each well followed by incubation at 37° C. and 5% CO2 for 50 minutes to incorporate the Ca^2+ dye into the cells. The cell plate was then placed in the Flexstation (Molecular Devices) for 20 minutes at 37° C. Compounds were dissolved in 100% DMSO and diluted to desired concentrations with assay buffer and placed in Flexstation simultaneously with the cell plate for 20 minute incubation at 37° C. prior to reading. Fluorescence intensity was measured immediately following compound addition (25 μl/well) on the Flexstation at an excitation wavelength of 485 nm and an emission wavelength of 525 with 515 nm auto cutoff. The resulting increase in fluorescence intensities corresponds to increases in intracellular Ca^2+ levels.
Compounds were dissolved in 100% DMSO to a concentration of 20 mM to provide stock solutions. To determine activity against human GPR120, compounds were added with human GPR120 stably expressing cells (described above), at 8 desired concentrations ranging from 0.00001 to 20 μM, in 96 well plates and fluorescence intensities were measured for 90 seconds with 2-second intervals. An EC50 value (concentration of the GPR120 agonist where 50% of the agonist's maximal activity is observed) was calculated using the changes (Max-Min) of fluorescent intensity.
To determine percent activity for a tested compound, the fluorescence intensity value obtained at a particular concentration were compared to the maximal fluorescence intensity value obtained for reference compound GW9508 (4-[[(3-phenoxyphenyl)methyl]amino]benzene propanoic acid; British Journal of Pharmacology 2006 148, 619-628) that acts as a full agonist of the GPR120 receptor. The maximal activity of GW9508 is designated as 100% activity. Typically, the GW9508 activity reached a maximum at a concentration of approximately 6.7 μM. Activities of compounds that were tested according to this method are shown in Table 1 below and are expressed as % activity at 5 μM compound compared to the maximal activity of GW9508 at 6.7 μM.

[1] = read-out: EC50 between >1 μM and ≦10 μM

| Structure (SMILES) | % Activity at 5 μM | EC50 (read-out: EC50 ≦ 1 μM) | EC50 [1] | EC50 (read-out: EC50 > 10 μM) |
| --- | --- | --- | --- | --- |
| CCc1cc(COc2c(F)cc(CC(C)C(=O)O)cc2F)n(-c2ccc(Cl)cc2)n1 (centres unmarked) [Example 101, 3-(4-((1-(4-chlorophenyl)-3-ethyl-1H-pyrazol-5-yl)methoxy)-3,5-difluorophenyl)-2-methylpropanoic acid] | 113% | ≤ 1 µM |  |  |
| O=C(O)C(F)(F)Cc1cc(F)c(OCc2cc(C(F)(F)F)nn2-c2ccc(Cl)cc2)c(F)c1 [Example 57, 3-(4-((1-(4-chlorophenyl)-3-(trifluoromethyl)-1H-pyrazol-5-yl)methoxy)-3,5-difluorophenyl)-2,2-difluoropropanoic acid] | 85% | ≤ 1 µM |  |  |
| Cc1cc(COc2c(F)cc(CCC(=O)O)cc2F)c(-c2ccccc2)o1 [Example 12, 3-(3,5-difluoro-4-((5-methyl-2-phenylfuran-3-yl)methoxy)phenyl)propanoic acid] | 70% |  | 1 to 10 µM |  |
| O=C(O)CCc1cc(F)c(OCc2cncn2-c2ccccc2)c(F)c1 [Example 3, 3-(3,5-difluoro-4-((1-phenyl-1H-imidazol-5-yl)methoxy)phenyl)propanoic acid] | 70% |  | 1 to 10 µM |  |
| Cc1cc(COc2c(F)cc(CC(C)C(=O)O)cc2F)n(-c2ccc(C(F)(F)F)cc2)n1 (centres unmarked) [Example 77, 3-(3,5-difluoro-4-((3-methyl-1-(4-(trifluoromethyl)phenyl)-1H-pyrazol-5-yl)methoxy)phenyl)-2-methylpropanoic acid] | 95% | ≤ 1 µM |  |  |
| Cc1cc(-c2onc(C)c2COc2c(F)cc(CCC(=O)O)cc2F)no1 [Example 19, 3-(4-((3′,5-dimethyl-3,5′-biisoxazol-4′-yl)methoxy)-3,5-difluorophenyl)propanoic acid] | 69% | ≤ 1 µM |  |  |
| O=C(O)CSc1ccc(OCc2snnc2-c2ccccc2)cc1 [Example 29, 2-(4-((4-phenyl-1,2,3-thiadiazol-5-yl)methoxy)phenylthio)acetic acid] | 85% |  | 1 to 10 µM |  |
| Cc1cc(COc2c(F)cc(CC(C)C(=O)O)cc2F)n(-c2ccccn2)n1 (centres unmarked) [Example 124, 3-(3,5-difluoro-4-((3-methyl-1-(pyridin-2-yl)-1H-pyrazol-5-yl)methoxy)phenyl)-2-methylpropanoic acid] | 33% |  |  | > 10 µM |
| CCc1ccc(-n2nc(C)cc2COc2ccc(CC(C)C(=O)O)cc2C)cc1 (centres unmarked) [Example 95, 3-(4-((1-(4-ethylphenyl)-3-methyl-1H-pyrazol-5-yl)methoxy)-3-methylphenyl)-2-methylpropanoic acid] | 100% | ≤ 1 µM |  |  |
| Cc1onc(-c2ccccc2)c1COc1c(F)cc(COCC(=O)O)cc1F [Example 34, 2-(3,5-difluoro-4-((5-methyl-3-phenylisoxazol-4-yl)methoxy)benzyloxy)acetic acid] | 74% |  | 1 to 10 µM |  |
| Cc1cc(COc2c(F)cc(CC(F)C(=O)O)cc2F)n(-c2ccc(Cl)cc2)n1 (centres unmarked) [Example 54, 3-(4-((1-(4-chlorophenyl)-3-methyl-1H-pyrazol-5-yl)methoxy)-3,5-difluorophenyl)-2-fluoropropanoic acid] | 48% | ≤ 1 µM |  |  |
| Cc1cc(COc2ccc3c(c2)CCC3CC(=O)O)n(-c2ccc3c(c2)CCC3)n1 (centres unmarked) [Example 120, 2-(5-((1-(2,3-dihydro-1H-inden-5-yl)-3-methyl-1H-pyrazol-5-yl)methoxy)-2,3-dihydro-1H-inden-1-yl)acetic acid] | 94% | ≤ 1 µM |  |  |
| CCc1ccc(-n2nc(C)cc2COc2ccc(CC(C)C(=O)O)cc2F)cc1 (centres unmarked) [Example 90, 3-(4-((1-(4-ethylphenyl)-3-methyl-1H-pyrazol-5-yl)methoxy)-3-fluorophenyl)-2-methylpropanoic acid] | 99% | ≤ 1 µM |  |  |
| O=C(O)CCc1cc(F)c(OCc2snnc2-c2cccc(Cl)c2)c(F)c1 [Example 32, 3-(4-((4-(3-chlorophenyl)-1,2,3-thiadiazol-5-yl)methoxy)-3,5-difluorophenyl)propanoic acid] | 85% | ≤ 1 µM |  |  |
| Cc1nc(-c2ccccc2)c(COc2c(F)cc(C3CC3C(=O)O)cc2F)s1 (centres unmarked) [Example 33, 2-(3,5-difluoro-4-((2-methyl-4-phenylthiazol-5-yl)methoxy)phenyl)cyclopropane carboxylic acid] | 80% | ≤ 1 µM |  |  |
| O=C(O)CCc1cc(F)c(OCc2nccn2Cc2ccccc2)c(F)c1 [Example 11, 3-(4-((1-benzyl-1H-imidazol-2-yl)methoxy)-3,5-difluorophenyl)propanoic acid] | 75% |  | 1 to 10 µM |  |
| Cc1cc(COc2c(F)cc(CC(C)C(=O)O)cc2F)n(-c2cccc(Cl)c2)n1 (centres unmarked) [Example 89, 3-(4-((1-(3-chlorophenyl)-3-methyl-1H-pyrazol-5-yl)methoxy)-3,5-difluorophenyl)-2-methylpropanoic acid] | 107% | ≤ 1 µM |  |  |
| Cc1cc(COc2ccc(CCCC(=O)O)cc2)n(-c2ccccc2)n1 [Example 45, 4-(4-((3-methyl-1-phenyl-1H-pyrazol-5-yl)methoxy)phenyl)butanoic acid] | 61% | ≤ 1 µM |  |  |
| Cc1cc(COc2c(F)cc(CC(C)C(=O)O)cc2F)n(-c2ccc(C3CCCCC3)cc2)n1 (centres unmarked) [Example 104, 3-(4-((1-(4-Cyclohexylphenyl)-3-methyl-1H-pyrazol-5-yl)methoxy)-3,5-difluorophenyl)-2-methylpropanoic acid] | 27% |  |  | > 10 µM |
| Cc1cc(COc2c(F)cc(CC(C)(C)C(=O)O)cc2F)n(-c2ccc(Cl)cc2)n1 [Example 38, 3-(4-((1-(4-chlorophenyl)-3-methyl-1H-pyrazol-5-yl)methoxy)-3,5-difluorophenyl)-2,2-dimethylpropanoic acid] | 100% |  | 1 to 10 µM |  |
| Cc1cc(COc2ccc(CC(C)C(=O)O)cc2)n(-c2ccc(Cl)cc2)n1 (centres unmarked) [Example 86, 3-(4-((1-(4-chlorophenyl)-3-methyl-1H-pyrazol-5-yl)methoxy)phenyl)-2-methylpropanoic acid] | 98% | ≤ 1 µM |  |  |
| Cc1cc(COc2c(F)cc(CCC(=O)O)cc2F)n(-c2ccccc2)n1 [Example 46, 3-(3,5-difluoro-4-((3-methyl-1-phenyl-1H-pyrazol-5-yl)methoxy)phenyl)propanoic acid] | 62% | ≤ 1 µM |  |  |
| Cc1cc(COc2ccc(CC(C)C(=O)O)cc2C)n(-c2ccc(Cl)cc2)n1 (centres unmarked) [Example 109, 3-(4-((1-(4-Chlorophenyl)-3-methyl-1H-pyrazol-5-yl)methoxy)-3-methylphenyl)-2-methylpropanoic acid] | 114% | ≤ 1 µM |  |  |
| Cc1cc(COc2c(F)cc(CCC(=O)O)cc2F)n(-c2ccc(F)cc2)n1 [Example 47, 3-(3,5-difluoro-4-((1-(4-fluorophenyl)-3-methyl-1H-pyrazol-5-yl)methoxy)phenyl)propanoic acid] | 71% | ≤ 1 µM |  |  |
| Cc1cc(COc2c(Cl)cc(CC(C)C(=O)O)cc2Cl)n(-c2ccc(Cl)cc2)n1 (centres unmarked) [Example 113, 3-(3,5-Dichloro-4-((1-(4-chlorophenyl)-3-methyl-1H-pyrazol-5-yl)methoxy)phenyl)-2-methylpropanoic acid] | 92% | ≤ 1 µM |  |  |
